Assay [1] has as its system vasopressor response to AVP. Nature of the assay: Antagonism to the vasopressor response (Dyckes et al.). To be noted: estimated in vivo pA2 (Schild); effective dose / 67 mL/kg; (n) in parentheses. The procedure:
Antagonism to the vasopressor response was estimated in accordance with Dyckes et al., J. Med. Chem., vol. 17 (1974) at 969. The values are expressed as pA2 values, defined by Schild et al., Br. J. Pharmacol., vol. 2 (1947) at 189.
(§1) Antagonistic potencies were determined and expressed as "effective doses" and as pA2 values. The "effective dose" is defined as the dose (in nanomoles per kilogram) that reduces the response seen from 2x units of agonist injected 20 min after the dose of antagonist to the response with 1x units of agonist.

The test system of assay [2] is antidiuretic response to ADH (arginine vasopressin). Nature of the assay: Antagonism of the antidiuretic response to ADH (anti-antidiuretic potency) in ethanol-anesthetized water-loaded rats. To be noted: estimated in vivo pA2 = negative logarithm of effective dose divided by estimated volume of distribution (67 mL/kg); (n) in parentheses. The procedure:
Activity as antidiuretic agonists was determined by intravenous injection of compounds being evaluated into ethanol-anesthesized water-loaded rats in accordance with Sawyer et al., Endocrinology, vol. 63 (1958) at 694.
as §1

*1 amine or outer side, *2 acyl side, *3 side chain or, on linkers, in order; H or OH if unused. Where a SMILES comes first, the peptide text is derived from it. Bridges are numbered along the chain shown (N, C = ends). [ ]: non-standard residue; d: D form. The star is where a group is joined. X1 = O=C(CC1(S[*:2])CCCCC1)[*:1]; Propyl = CCC*; iPr = CC(C)*

On to `CCOc1ccc(C[C@H]2NC(=O)CC3(CCCCC3)SSC[C@@H](C(=O)N3CCC[C@H]3C(=O)N[C@@H](CCCNC(=N)N)C(=O)NCC(N)=O)NC(=O)[C@H](CC(N)=O)NC(=O)[C@H](C(C)C)NC(=O)[C@H](Cc3ccccc3)NC2=O)cc1` [d(CH2)5 --D-Tyr(Et) VAVP] ([dY](Et)FVNCPRG-NH2; linker N-5 via X1), for which the “Antivasopressor pA2” value in assay [1] was 8.22 ± 0.12. Moreover, the “Anti-Antidiuretic pA2” value in assay [2] is 7.81 ± 0.07.
In the same order, the values of `COc1ccc(C[C@H]2NC(=O)CC3(CCCCC3)SSC[C@@H](C(=O)N3CCC[C@H]3C(=O)N[C@@H](CCCNC(=N)N)C(=O)NCC(N)=O)NC(=O)[C@H](CC(N)=O)NC(=O)[C@H](C(C)C)NC(=O)[C@H](Cc3ccccc3)NC2=O)cc1` [d(CH2)5 --D-Tyr(Me) VAVP] ([dY](Me)FVNCPRG-NH2; linker N-5 via X1) are 8.48 ± 0.08 and 7.77 ± 0.07.
The like results for `CC(C)[C@@H]1NC(=O)[C@H](Cc2ccccc2)NC(=O)[C@@H](Cc2ccccc2)NC(=O)CC2(CCCCC2)SSC[C@@H](C(=O)N2CCC[C@H]2C(=O)N[C@@H](CCCNC(=N)N)C(=O)NCC(N)=O)NC(=O)[C@H](CC(N)=O)NC1=O` [d(CH2)5 D-Phe VAVP, [1-(β-mercapto-β,β-cyclopentamethylenepropionicacid), 2-D-phenylalanine, 4-valine]-arginine vasopressin] ([dF]FVNCPRG-NH2; linker N-5 via X1) were, in that order, 8.06 ± 0.03 and 8.07 ± 0.09.
Consider `CC(C)[C@@H]1NC(=O)[C@H](Cc2ccccc2)NC(=O)[C@@H](Cc2ccccc2)NC(=O)CC2(CCCCC2)SSC[C@@H](C(=O)N2CCC[C@H]2C(=O)N[C@H](CCCNC(=N)N)C(=O)NCC(N)=O)NC(=O)[C@H](CC(N)=O)NC1=O` [d(CH2)5 D-Phe VDAVP, [1-(β-mercapto-β,β-cyclopentamethylenepropionic acid), 2-D-phenylalanine, 4-valine, 8-D-arginine] vasopressin] ([dF]FVNCP[dR]G-NH2; linker N-5 via X1), for which, in assay [1], the “Antivasopressor pA2” value was 7.98 ± 0.07. Further, the “Anti-Antidiuretic pA2” value in assay [2] is on record as 7.07 ± 0.10.
The like results for `CC(C)[C@@H]1NC(=O)[C@H](Cc2ccccc2)NC(=O)[C@@H](Cc2ccc(O)cc2)NC(=O)CC2(CCCCC2)SSC[C@@H](C(=O)N2CCC[C@H]2C(=O)N[C@@H](CCCNC(=N)N)C(=O)NCC(N)=O)NC(=O)[C@H](CC(N)=O)NC1=O` [d(CH2)5 D-Tyr VAVP, [1-(β-mercapto-β,β-cyclopentamethylenepropionic acid), 2-D-tyrosine, 4-valine]-arginine vasopressin] ([dY]FVNCPRG-NH2; linker N-5 via X1) were, in that order, 8.41 ± 0.11 and 7.51 ± 0.08.
Regarding `CCOc1ccc(C[C@@H]2NC(=O)CC3(CCCCC3)SSC[C@@H](C(=O)N3CCC[C@H]3C(=O)N[C@@H](CCCNC(=N)N)C(=O)NCC(N)=O)NC(=O)[C@H](CC(N)=O)NC(=O)[C@H](C(C)C)NC(=O)[C@H](Cc3ccccc3)NC2=O)cc1` [d(CH2)5 Tyr(Et) VAVP] (Y(Et)FVNCPRG-NH2; linker N-5 via X1), the “Antivasopressor pA2” value in assay [1] is 8.16 ± 0.09. In addition, the “Anti-Antidiuretic pA2” value in assay [2] is listed as 7.57 ± 0.06.
In the same order, the values of `CCOc1ccc(C[C@@H]2NC(=O)CC3(CCCCC3)SSC[C@@H](C(=O)N3CCC[C@H]3C(=O)N[C@H](CCCNC(=N)N)C(=O)NCC(N)=O)NC(=O)[C@H](CC(N)=O)NC(=O)[C@H](C(C)C)NC(=O)[C@H](Cc3ccccc3)NC2=O)cc1` [d(CH2)5 Tyr(Et) VDAVP] (Y(Et)FVNCP[dR]G-NH2; linker N-5 via X1) are 8.31 ± 0.05 and 7.10 ± 0.08.
The like results for `COc1ccc(C[C@@H]2NC(=O)CC3(CCCCC3)SSC[C@@H](C(=O)N3CCC[C@H]3C(=O)N[C@@H](CCCNC(=N)N)C(=O)NCC(N)=O)NC(=O)[C@H](CC(N)=O)NC(=O)[C@H](C(C)C)NC(=O)[C@H](Cc3ccccc3)NC2=O)cc1` [d(CH2)5 Tyr(Me) VAVP] (Y(Me)FVNCPRG-NH2; linker N-5 via X1) were, in that order, 8.32 ± 0.08 and 7.35 ± 0.06.
As for `COc1ccc(C[C@@H]2NC(=O)CC3(CCCCC3)SSC[C@@H](C(=O)N3CCC[C@H]3C(=O)N[C@H](CCCNC(=N)N)C(=O)NCC(N)=O)NC(=O)[C@H](CC(N)=O)NC(=O)[C@H](C(C)C)NC(=O)[C@H](Cc3ccccc3)NC2=O)cc1` [d(CH2)5 Tyr(Me) VDAVP, [1-(β-mercapto-β,β-cyclopentamethylenepropionic acid), 2-O-methyltyrosine, 4-valine, 8-D-arginine] vasopressin] (Y(Me)FVNCP[dR]G-NH2; linker N-5 via X1), in assay [1], the “Antivasopressor pA2” value is recorded as 8.44 ± 0.07. Moreover, the “Anti-Antidiuretic pA2” value in assay [2] is on record as 6.68 ± 0.11.
For the compound `CC(C)Oc1ccc(C[C@@H]2NC(=O)CC3(CCCCC3)SSC[C@@H](C(=O)N3CCC[C@H]3C(=O)N[C@@H](CCCNC(=N)N)C(=O)NCC(N)=O)NC(=O)[C@H](CC(N)=O)NC(=O)[C@H](C(C)C)NC(=O)[C@H](Cc3ccccc3)NC2=O)cc1` [d(CH2)5 Tyr(i-Pr) VAVP] (Y(iPr)FVNCPRG-NH2; linker N-5 via X1), in assay [1], the “Antivasopressor pA2” value was 8.36 ± 0.09. The “Anti-Antidiuretic pA2” value in assay [2] is recorded as 7.32 ± 0.06.
In the same order, the values of `CC(C)Oc1ccc(C[C@@H]2NC(=O)CC3(CCCCC3)SSC[C@@H](C(=O)N3CCC[C@H]3C(=O)N[C@H](CCCNC(=N)N)C(=O)NCC(N)=O)NC(=O)[C@H](CC(N)=O)NC(=O)[C@H](C(C)C)NC(=O)[C@H](Cc3ccccc3)NC2=O)cc1` [d(CH2)5 Tyr(i-Pr) VDAVP] (Y(iPr)FVNCP[dR]G-NH2; linker N-5 via X1) are 8.41 ± 0.08 and 6.88 ± 0.07.
In the same order, the values of `CCCOc1ccc(C[C@@H]2NC(=O)CC3(CCCCC3)SSC[C@@H](C(=O)N3CCC[C@H]3C(=O)N[C@@H](CCCNC(=N)N)C(=O)NCC(N)=O)NC(=O)[C@H](CC(N)=O)NC(=O)[C@H](C(C)C)NC(=O)[C@H](Cc3ccccc3)NC2=O)cc1` [d(CH2)5 Tyr(n-Pr) VAVP] (Y(Propyl)FVNCPRG-NH2; linker N-5 via X1) are 8.22 ± 0.04 and 7.29 ± 0.07.
The like results for `CCCOc1ccc(C[C@@H]2NC(=O)CC3(CCCCC3)SSC[C@@H](C(=O)N3CCC[C@H]3C(=O)N[C@H](CCCNC(=N)N)C(=O)NCC(N)=O)NC(=O)[C@H](CC(N)=O)NC(=O)[C@H](C(C)C)NC(=O)[C@H](Cc3ccccc3)NC2=O)cc1` [d(CH2)5 Tyr(n-Pr) VDAVP] (Y(Propyl)FVNCP[dR]G-NH2; linker N-5 via X1) were, in that order, 7.86 ± 0.10 and 6.67 ± 0.05.
Turning to `CC(C)[C@@H]1NC(=O)[C@H](Cc2ccccc2)NC(=O)[C@@H](C)NC(=O)CC2(CCCCC2)SSC[C@@H](C(=O)N2CCC[C@H]2C(=O)N[C@@H](CCCNC(=N)N)C(=O)NCC(N)=O)NC(=O)[C@H](CC(N)=O)NC1=O` [d(CH2)5 [D-Ala^2] VAVP, [1-(β-mercapto-β,β-cyclopentamethylenepropionic acid), 2-D-alanine, 4-valine]-arginine vasopressin] ([dA]FVNCPRG-NH2; linker N-5 via X1), the “Antivasopressor pA2” value in assay [1] is reported as 5.79 ± 0.08.
As to `CC(C)[C@@H]1NC(=O)[C@H](Cc2ccccc2)NC(=O)[C@@H](CCCNC(=N)N)NC(=O)CC2(CCCCC2)SSC[C@@H](C(=O)N2CCC[C@H]2C(=O)N[C@@H](CCCNC(=N)N)C(=O)NCC(N)=O)NC(=O)[C@H](CC(N)=O)NC1=O` [d(CH2)5 [D-Arg^2] VAVP, [1-(β-mercapto-β,β-cyclopentamethylenepropionic acid), 2-D-arginine, 4-valine]-arginine vasopressin] ([dR]FVNCPRG-NH2; linker N-5 via X1), in assay [1], the “Antivasopressor pA2” value is given as ~ 5.4. The “Anti-Antidiuretic pA2” value in assay [2] was < 5.9.
As for `CC[C@@H](C)[C@H]1NC(=O)CC2(CCCCC2)SSC[C@@H](C(=O)N2CCC[C@H]2C(=O)N[C@@H](CCCNC(=N)N)C(=O)NCC(N)=O)NC(=O)[C@H](CC(N)=O)NC(=O)[C@H](C(C)C)NC(=O)[C@H](Cc2ccccc2)NC1=O` [d(CH2)5 [D-Ile^2] VAVP, [1-(β-mercapto-β,β-cyclopentamethylenepropionic acid), 2-D-isoleucine, 4-valine]-arginine vasopressin] ([dI]FVNCPRG-NH2; linker N-5 via X1), the “Antivasopressor pA2” value in assay [1] is 6.94 ± 0.08. Moreover, in assay [2], the “Anti-Antidiuretic pA2” value is given as 7.98 ± 0.05.
In the same order, the values of `CC(C)C[C@H]1NC(=O)CC2(CCCCC2)SSC[C@@H](C(=O)N2CCC[C@H]2C(=O)N[C@@H](CCCNC(=N)N)C(=O)NCC(N)=O)NC(=O)[C@H](CC(N)=O)NC(=O)[C@H](C(C)C)NC(=O)[C@H](Cc2ccccc2)NC1=O` [d(CH2)5 [D-Leu^2] VAVP, [1-(β-mercapto-β,β-cyclopentamethylenepropionic acid), 2-D-leucine, 4-valine]-arginine vasopressin] ([dL]FVNCPRG-NH2; linker N-5 via X1) are 6.45 ± 0.09 and 7.79 ± 0.12.
The like results for `CC(C)[C@@H]1NC(=O)[C@H](Cc2ccccc2)NC(=O)[C@@H](C(C)C)NC(=O)CC2(CCCCC2)SSC[C@@H](C(=O)N2CCC[C@H]2C(=O)N[C@@H](CCCNC(=N)N)C(=O)NCC(N)=O)NC(=O)[C@H](CC(N)=O)NC1=O` [d(CH2)5 [D-Val^2] VAVP, [1-(β-mercapto-β,β-cyclopentamethylenepropionic acid), 2-D-valine, 4-valine]-arginine vasopressin] ([dV]FVNCPRG-NH2; linker N-5 via X1) were, in that order, 6.41 ± 0.05 and 7.48 ± 0.06.
